One assay addresses human SHMT2 (Homo sapiens (Human), UniProt P34897). Kind of assay: SHMT2 in vitro enzymatic assay (coupled with MTHFD2, NADH absorption at 340 nm). Type of assay: biochemical. Conditions: SHMT2 IC50 (μM), Table 2.
The subject of assay [1] is HCT116 cells. Kind of assay: Formate rescue assay in cell growth assay. Conditions: for rescue of effects on cell growth by addition of formate: Table 5 cells. Type of assay: cell-based, human. The method, then: Application of formate is shown to rescue the anti-growth effect in certain human cells treated with SHMT inhibitors in a cell growth assay.
(§1) The described cell lines for Examples 8 and 9 are cultured in 96-well plates in Dulbecco's modified eagle media (DMEM) without pyruvate (CELLGRO) with 10% dialysed fetal bovine serum (Invitrogen) in 5% CO2 at 37° C. Approximately 2,500 cells are plated in each well in 90 uL of media. After 24 hours cells are treated with various concentrations of inhibitor (time=0 hours), with or without formate. Growth was assessed at multiple time points (time=0, 24, 48, 72 hours) through measurement of fluorescence at 595 nm (excitation at 535 nm) on a BioTek micro titer plate reader after incubation with resazurin (0.01 mg/mL for 1.5 hours). IC50 curves are generated from percent inhibition of growth at 72 hours.

The test system of assay [2] is HCT116 cells. Description: Cell growth assay (resazurin), HCT116 wild-type. Type of assay: cell-based, human. As to the method:
(§2) Inhibitors of SHMT were evaluated in various cancer cell lines, in the presence and absence of mutations in mitochondrial folate pathway enzymes.
as §1

For assay [3], the system named is SHMT2 knock-out HCT116 cells. Kind of assay: Cell growth assay, SHMT2 deletion (knock-out) HCT-116 cells. Type of assay: cell-based, human. As to conditions: FIG. 3B. As to the method:
as §2, §1
Clonal deletion cell lines of SHMT1, SHMT2, and SHMT1/2 were generated from the human colorectal carcinoma cell line HCT-116. Paired Cas9 nickase (Cas9n) containing constructs that encoded single-guide RNA sequences targeting SHMT1 or 2 were transiently transfected into cells, and mutant colonies from single clones were picked as described in Ducker et al., (2016) Reversal of Cytosolic One-Carbon Flux Compensates for Loss of the Mitochondrial Folate Pathway, Cell Metab 23, 1140-1153. […]

Another assay relates to Jurkat cells. Kind of assay: Cellular growth assay, Jurkat T-cell leukemia line. Type of assay: cell-based, human. As to conditions: 5 μM inhibitor + 1 mM sodium formate. As to the method:
(§3) Jurkat, REH, Farage, Daudi, Su-DHL2, Su-DHL-4, Su-DHL-6 cells were purchased from ATCC. Cells were subcultured in RPMI supplemented with 10% FBS. For growth assays, cells were seeded at 2×10^5/mL in 5 mL growth media in 12.5 cm flasks. Media was supplemented with sodium formate (1 mM), additional glycine (100 mg/L) and an SHMTi (5 uM). Cells were sampled daily, and counted using trypan blue staining and light microscopy.

The test system of the next assay is Su-DHL-2 cells. Kind of assay: Cellular growth assay (cell count), Su-DHL-2 DLBCL line. Type of assay: cell-based, human. Conditions: Su-DHL-2, 5 μM inhibitor + 1 mM formate. The method, then:
as §3

Another assay concerns 8988T cells. Kind of assay: Growth of pancreatic cancer cell line 8988T. Type of assay: cell-based, human. Conditions: FIG. 9E.
Assay [4] has as its system Su-DHL4 cells. Kind of assay: Cellular growth assay, Su-DHL4 DLBCL line. Type of assay: cell-based, human. Conditions: SU-DHL4, RPMI, FIG. 12C. As to the method:
as §3

Assay [5] concerns Su-DHL4 cells. Kind of assay: Apoptosis by flow cytometry (Annexin V surface staining). Type of assay: cell-based, human. The source says:
Apoptosis was enhanced by co-treatment with formate. In contrast, as expected, formate rescued Jurkat E6-1 leukemia cells from apoptosis (FIG. 11C). Without wishing to be bound by theory, it is hypothesized that the failure of formate to rescue growth in the DLBCL cell lines is due to a requirement for both glycine and 1C units made by SHMT in these cells. When glycine is limiting, formate can enhance the cytotoxicity of SHMT inhibition. […] Mechanistically, by supplying 5,10-methylene-THF, formate may drives residual SHMT enzymatic function in the […] direction.
In contrast, cell growth is further decreased in Su-DHL4 cells by addition of formate. This can be further exacerbated by removal of glycine from the media. […] Using flow cytometry, apoptosis of Su-DHL4 cells were studied with AnnexinV surface staining (FIGS. 12D and 12E).

human SHMT2, sequence (P34897 30-504): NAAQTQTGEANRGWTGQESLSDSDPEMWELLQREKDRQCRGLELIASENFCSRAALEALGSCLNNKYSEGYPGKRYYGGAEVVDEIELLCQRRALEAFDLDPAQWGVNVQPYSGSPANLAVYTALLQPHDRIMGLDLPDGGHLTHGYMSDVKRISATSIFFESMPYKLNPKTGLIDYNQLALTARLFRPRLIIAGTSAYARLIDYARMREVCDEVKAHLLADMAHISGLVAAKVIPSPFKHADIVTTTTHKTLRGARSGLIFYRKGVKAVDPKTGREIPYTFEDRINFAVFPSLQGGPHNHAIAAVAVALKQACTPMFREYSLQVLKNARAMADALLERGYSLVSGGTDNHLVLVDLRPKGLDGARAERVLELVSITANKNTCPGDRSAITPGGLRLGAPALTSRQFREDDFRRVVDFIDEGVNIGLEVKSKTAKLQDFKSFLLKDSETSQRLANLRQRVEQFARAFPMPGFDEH
Protocol for human SHMT2: Inhibition of human SHMT by compounds in this disclosure is evaluated, for example, in their racemic forms in an in vitro assay.
For the SHMT1 and SHMT2 in vitro enzymatic assays, the rate of 5,10-methylene tetrahydrofolate formation catalyzed by SHMT1/2 was indirectly evaluated by coupling with excess MTHFD2, which converts NAD+ to NADH allowing for reaction monitoring by absorption at 340 nm. […] Inhibition of initial reaction velocity was determined by adding various inhibitors at different concentrations and monitored as described. IC50 may be calculated based on this assay.

As to `Cc1n[nH]c2c1C(c1cc(C#CCCC(=O)O)cc(C(F)(F)F)c1)(C(C)C)C(C#N)=C(N)O2` (racemic) [1 (enantiomeric mixture)], half-maximal inhibition at human SHMT2 (IC50) was put at 0.00065 µM.
As to `Cc1n[nH]c2c1C(c1cc(C#CCCC(=O)O)cc(C(F)(F)F)c1)(C(C)C)C(C#N)=C(N)O2` (stereo not drawn) [1 (enatiomerically active peak)], the “% formate rescue” value with HCT116 cells [1] (HCT cells, Table 2) came out at 94.96%. In addition, the IC50 against human SHMT2 came out at 0.00079 µM; in the assay on HCT116 cells [2] (Table 2, read-out: HCT Cell IC50) it was 1360 nM.
As to `Cc1n[nH]c2c1C(c1cc(C#CCCCO)cc(C(F)(F)F)c1)(C(C)C)C(C#N)=C(N)O2` (stereo not drawn) [Compound 61, 6-amino-4-(3-(5-hydroxypent-1-yn-1-yl)-5-(trifluoromethyl)phenyl)-4-isopropyl-3-methyl-1,4-dihydropyrano[2,3-c]pyrazole-5-carbonitrile], the “growth of SHMT2 knock-out HCT116 cells versus native” value in assay [3] was “increased potency”. In addition, the “growth (proliferation) of HCT116 cells” value in the assay on HCT116 cells [2] (native HCT116, FIG. 3A) is “inhibited growth”.
As for `Cc1n[nH]c2c1[C@@](c1cc(C(F)(F)F)cc(C(F)(F)F)c1)(C(C)C)C(C#N)=C(N)O2` [HK-16 (PK-2)], the “rescue of growth inhibition by formate” value was “significantly rescued” in the assay with Jurkat cells and “not rescued” in the assay on Su-DHL-2 cells.
For `Cc1n[nH]c2c1C(c1cc(N3CCCC3)cc(C(F)(F)F)c1)(C(C)C)C(C#N)=C(N)O2` (stereo not drawn) [HK-X1], in the assay on HCT116 cells [1], the “rescue of effects on cell growth by addition of formate” value is reported as “rescued”.
For `Cc1n[nH]c2c1C(c1cc(CO)cc(-c3ccccc3)c1)(C(C)C)C(C#N)=C(N)O2` (stereo not drawn) [HK-X2], in the assay on HCT116 cells [1], the “rescue of effects on cell growth by addition of formate” value was “rescued”. Further, in the assay with 8988T cells, the “concentration impairing cell growth” value is less than 100 nM. In addition, the IC70 in the assay on Su-DHL4 cells [4] came to 5 µM. Moreover, the “apoptotic fraction of cells” value turned out to be 8% in the assay with Su-DHL4 cells [5] (Su-DHL4, inhibitor alone (control 2%)) and 15% in the assay on Su-DHL4 cells [5] (Su-DHL4, inhibitor in the presence of formate). Besides, in the assay on Su-DHL4 cells [5] (Su-DHL-4), the “apoptosis by Annexin V surface staining” value is listed as “induced apoptosis”.

For the origin of these results see patent US10934305B2, “SHMT inhibitors” (The Trustees of Princeton University, priority 2016, dated 2021).
